What is called EC50 is the concentration giving half of the maximal effect. A higher EC50 goes with weaker potency. A word on the Emax: it is the greatest response seen or fitted, relative to the assay's reference.

Assay [1] concerns the target T1, human Cystic Fibrosis Transmembrane Conductance Regulator (CFTR) harboring the ΔF508 mutation (Homo sapiens, UniProt P13569, DEL508-508).
T1 construct: expressed in transfected cells; host or cells: H441 carcinoma cell line (G418 selection)
Nature of the assay: H441 cell Emax and EC50: HRP-tagged ΔF508-CFTR cell-surface luminescence assay. The settings on record: H441 cells expressing HRP-tagged ΔF508-CFTR, 27° C. for two nights; for EC50: 15-point dose-response; for Emax: NCI-H441, % of maximum VX809 signal. Type of assay: cell-based. The text has this:
Example 36: H441 Cell Emax and EC50
Two cell lines were used, the H441 carcinoma line and the CFHBE41o− (41o−) human bronchial epithelial line. Both cell lines expressed human Cystic Fibrosis Transmembrane Conductance Regulator (CFTR) harboring the ΔF508 mutation and with an in-frame fusion in CFTR extracellular loop 4 of Horse Radish Peroxidase (HRP) under control of the CMV promoter. In the presence of the HRP tag, ΔF508-CFTR transported to the cell surface was detectable upon addition of an HRP substrate (Luminata Forte). Both cell types were cultivated at 37° C. with CO2.
For both cell types, the medium was changed every other day unless the culture was at low % confluence. Cells were used for the assays at ˜75% confluence.
DMSO/Compound Dilutions Plate for 15-Point Dose-Response Testing
To a polypropylene (PP) 384-well plate, 15 μls DMSO was added to all wells in columns 1-22 and 24 (low Control). 15 μls of 260 μM VX809 (Lumacaftor), Selleckchem S1565, was added to column 23 wells (high Control). 15 μls of 10 mM test compound or VX809 (control) were added to wells of row A. Serial dilutions of Row A compound were performed 2×15 μls in rows A through 0 (15-point).
A PP, 384-well plate containing the appropriate cell culture medium was prepared for each assay plate with 100 μls per well. For the doxycycline-induced 41o− cells, doxycycline for both the assay plate and the medium dilution plate was added at 0.0005 mg/ml to the medium.
Both cell lines were plated for the assay at 30 μls per 384-well at 3.4×10^e5 cells per ml (˜10K cells/well). H441 cells were plated on opaque, white, Corning plate 3704. 41o− cells were plated on collagen-coated opaque, white, Corning plate 356665. For 41o− cells, doxycycline was added to the medium.
Compound Addition/Assay Incubation
Using FX (Beckman) protocol, 10 μls diluted compound or medium was added per well to the Assay Plate as: 2 μls DMSO Dilution plate well is diluted in 100 μls of the Medium Dilution Plate well, mixed, and 10 μls is transferred to the Assay Plate.
The final assay dilution series is 24.5, 12.3, 6.1, 3.1, 1.5, 0.8, 0.4, 0.2, 0.1, 0.05, 0.02, 0.01, 0.006, 0.003, 0.001 and 0 μM. The 41o− assay plates were incubated at 37° C. w/CO2, the H441 assay plates were incubated at 27° C. w/CO2, each overnight for two nights.
Assay Result Determination
After being brought to room temperature, the assay plate liquid was removed. 30 uls of Luminata Forte (Millipore ELLUF0100) was added per well and incubated at room temperature for 10 min. The plates were then read on a Topcount, protocol LumiMatti (CPS, luminescence). The data was analyzed for % of maximum, maximum VX809 signal, and EC50 using Pearl and SPEED tools.

The target of assay [2] is T2, CFTR (ΔF508 homozygous CF-HBE cells) (Homo sapiens, UniProt P13569, DEL508-508).
T2 construct: Primary human bronchial epithelial cells from a ΔF508 homozygous CF donor; host or cells: primary CF-HBE cells (ΔF508/ΔF508 donor)
Nature of the assay: TECC24 AUC fold over DMSO @10 uM: CFTR-mediated transepithelial chloride transport in primary CF-HBE cells. Type of assay: cell-based. The settings on record: 10 μM test agent, 48 hours, forskolin-stimulated IEQ AUC divided by vehicle AUC. Here is the method:
Example 37: TECC24 AUC Fold Over DMSO @10 uM
The effects of a test agent on CFTR-mediated transepithelial chloride transport was measured using TECC24 recording analysis. Test agents were solubilized in DMSO. Solubilized test agents were mixed with incubation medium containing DMEM/F12, Ultroser G (2%; Crescent Chemical, catalog #67042), Hyclone Fetal Clone 11(2%; GE Healthcare, catalog #SH30066.02), bovine brain extract (0.25%; Lonza, catalog #CC-4098), insulin (2.5 μg/mL), IL-13 (10 ng/mL), hydrocortisone (20 nM), transferrin (2.5 μg/mL), triiodothyronine (500 nM), ethanolamine (250 nM), epinephrine (1.5 μM), phosphoethanolamine (250 nM), and retinoic acid (10 nM). Primary human bronchial epithelial cells from a ΔF508 homozygous CF donor (CF-HBE cells; from University of North Carolina Cystic Fibrosis Tissue Procurement Center), grown on Transwell HTS 24-well cell culture inserts (Costar, catalog #3378), were exposed to test agents or controls dissolved in incubation medium. The CF-HBE cells were cultured at 36.5° C. for 48 hours before TECC24 recordings were performed in the presence or absence of test agent, a positive control or vehicle (DMSO).
Following incubation, the transwell cell culture inserts containing the test agent or control-treated CF-HBE cells were loaded onto a TECC24 apparatus (TECC v7 or MTECC v2; EP Design) to record the transepithelial voltage (VT) and resistance (TEER) using 4 AgCl electrodes per well configured in current-clamp mode. The apical and basolateral bath solutions both contained (in mM) 140 NaCl, 5 KCl, 2 CaCl2, 1 MgCl2, 10 Hepes, and 10 glucose (adjusted to pH 7.4 with NaOH). To inhibit basal Na+ absorption, the ENaC inhibitor benzamil (10 μM) was added to the bath. Then, the adenylate cyclase activator, forskolin (10 μM), was added to the bath to activate CFTR. The forskolin-stimulated Cl— transport was halted by addition of CFTR inhibitor-172 (20 μM) to the bath at the end of the experiment to confirm specificity. VT and TEER recordings were digitally acquired at routine intervals using TECC or MTECC software (EP Design). VT and TEER were transformed into equivalent transepithelial Cl-current (IEQ), and the Area Under the Curve (AUC) of the IEQ time course between forskolin and CFTR inhibitor-172 addition is generated using Excel (Microsoft). Efficacy is expressed as the ratio of the test agent AUC divided by vehicle AUC. EC50s based on AUC are generated using the non-linear regression log(agonist) vs. response function in Prism software (GraphPad) with Hill Slope fixed=1.
If a test agent increased the AUC of the forskolin-stimulated IEQ relative to vehicle in CF-HBE cells, and this increase was inhibited by CFTR inhibitor-172, then the test agent was considered a CFTR corrector.

The structures appear in SMILES notation.

T2 sequence (P13569 with tags, fused parts or gaps DEL508-508): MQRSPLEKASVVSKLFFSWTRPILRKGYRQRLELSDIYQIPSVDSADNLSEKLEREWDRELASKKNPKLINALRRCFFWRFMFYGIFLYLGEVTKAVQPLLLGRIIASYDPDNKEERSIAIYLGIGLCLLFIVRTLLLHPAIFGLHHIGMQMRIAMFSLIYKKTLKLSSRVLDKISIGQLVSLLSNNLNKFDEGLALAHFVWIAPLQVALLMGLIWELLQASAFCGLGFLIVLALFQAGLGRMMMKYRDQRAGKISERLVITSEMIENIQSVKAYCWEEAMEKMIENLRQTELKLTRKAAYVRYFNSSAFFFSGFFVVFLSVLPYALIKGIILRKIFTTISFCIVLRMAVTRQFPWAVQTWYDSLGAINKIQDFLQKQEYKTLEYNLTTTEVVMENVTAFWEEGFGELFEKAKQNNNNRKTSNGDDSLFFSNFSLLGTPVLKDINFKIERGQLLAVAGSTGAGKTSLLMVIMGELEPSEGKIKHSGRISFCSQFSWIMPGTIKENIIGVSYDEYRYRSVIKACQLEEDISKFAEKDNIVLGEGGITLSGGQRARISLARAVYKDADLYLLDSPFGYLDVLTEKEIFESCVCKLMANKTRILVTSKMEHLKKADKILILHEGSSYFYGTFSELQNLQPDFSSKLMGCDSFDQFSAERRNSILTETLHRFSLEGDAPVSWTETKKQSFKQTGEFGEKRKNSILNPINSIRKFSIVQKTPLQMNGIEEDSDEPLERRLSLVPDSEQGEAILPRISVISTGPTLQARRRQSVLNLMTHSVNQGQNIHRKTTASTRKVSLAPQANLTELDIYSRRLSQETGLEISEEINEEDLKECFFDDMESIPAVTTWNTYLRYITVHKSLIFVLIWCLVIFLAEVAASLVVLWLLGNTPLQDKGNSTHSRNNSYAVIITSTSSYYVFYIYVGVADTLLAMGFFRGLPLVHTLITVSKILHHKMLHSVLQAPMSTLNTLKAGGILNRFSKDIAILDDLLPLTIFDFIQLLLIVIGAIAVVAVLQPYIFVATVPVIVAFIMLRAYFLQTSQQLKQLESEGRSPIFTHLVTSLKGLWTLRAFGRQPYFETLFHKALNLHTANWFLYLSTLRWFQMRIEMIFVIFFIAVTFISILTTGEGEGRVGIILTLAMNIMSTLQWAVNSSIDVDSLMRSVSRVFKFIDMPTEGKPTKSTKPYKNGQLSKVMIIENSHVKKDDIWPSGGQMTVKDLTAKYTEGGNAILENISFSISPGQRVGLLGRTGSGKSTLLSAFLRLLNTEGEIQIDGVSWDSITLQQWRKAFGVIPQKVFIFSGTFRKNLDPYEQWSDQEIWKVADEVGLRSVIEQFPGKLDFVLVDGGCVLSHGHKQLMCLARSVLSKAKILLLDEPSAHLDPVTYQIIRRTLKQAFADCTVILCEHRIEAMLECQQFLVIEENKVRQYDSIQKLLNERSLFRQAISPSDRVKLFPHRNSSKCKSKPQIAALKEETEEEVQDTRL
T1 sequence (P13569 with tags, fused parts or gaps DEL508-508): as above

Consider `Cc1cc2ccc(C(=O)N[C@H](C(=O)O)C(C)(C)C)c(OCc3ccc(C(F)(F)F)cc3)c2s1` [Compound 33-11, (2S)-3,3-dimethyl-2-(2-methyl-7-((4-(trifluoromethyl)benzyl)oxy)-benzo[b]thiophene-6-carboxamido)butanoic acid], for which, in assay [1], the EC50 was 474 nM and the Emax came out at 187%. Also, the “TECC24 AUC fold over DMSO” value in assay [2] is “B (“B” refers to AUC @10 μM between 4-6)”.

`CC(C)c1cc2ccc(C(=O)N[C@H](C(=O)O)C(C)(C)C)c(OCc3ccc(OC(F)(F)F)cc3)c2s1` [Compound 33-12, (2S)-2-(2-isopropyl-7-((4-(trifluoromethoxy)benzyl)oxy)-benzo[b]thiophene-6-carboxamido)-3,3-dimethylbutanoic acid]: in assay [1], the EC50 was determined as 999 nM and the Emax turned out to be 150%. Besides, the “TECC24 AUC fold over DMSO” value in assay [2] was “C (“C” refers to AUC @10 μM < 4)”.

Turning to `Cc1cc2c(OCc3ccc(OC(F)(F)F)cc3)c(C(=O)N[C@H](C(=O)O)C(C)(C)C)ccc2s1` [Compound 33-13, (2S)-3,3-dimethyl-2-(2-methyl-4-((4-(trifluoromethoxy)benzyl)oxy)-benzo[b]thiophene-5-carboxamido)butanoic acid], in assay [1], the EC50 worked out at 377 nM and the maximal response (Emax) was determined as 324%. In assay [2], the “TECC24 AUC fold over DMSO” value is “A (“A” refers to AUC @10 μM > 6)”.

`CCC(C)(C)[C@H](NC(=O)c1ccc2sc(OC)cc2c1OCc1ccc(C(F)(F)F)cc1)C(=O)O` [Compound 33-14, (2S)-2-(2-methoxy-4-((4-(trifluoromethyl)benzyl)oxy)-benzo[b]thiophene-5-carboxamido)-3,3-dimethylpentanoic acid]: in assay [1], the EC50 is 1980 nM and the maximal effect (Emax) stood at 422%. Besides, the “TECC24 AUC fold over DMSO” value in assay [2] is on record as “A (“A” refers to AUC @10 μM > 6)”.

In assay [1], `CCC(C)(C)[C@H](NC(=O)c1ccc2cc(Cl)sc2c1OCc1ccc(C(F)(F)F)cc1)C(=O)O` [Compound 33-15, (2S)-2-(2-chloro-7-((4-(trifluoromethyl)benzyl)oxy)-benzo[b]thiophene-6-carboxamido)-3,3-dimethylpentanoic acid] had an EC50 of 880 nM and an Emax of 200%. For the same compound, the “TECC24 AUC fold over DMSO” value in assay [2] is listed as “A (“A” refers to AUC @10 μM > 6)”.

In assay [1], `CCC(C)(C)[C@H](NC(=O)c1ccc2sc(CCC(C)C)cc2c1OCc1ccc(C(F)(F)F)cc1)C(=O)O` [Compound 33-16, (2S)-2-(2-isopentyl-4-((4-(trifluoromethyl)benzyl)oxy)-benzo[b]thiophene-5-carboxamido)-3,3-dimethylpentanoic acid] had an EC50 of 340 nM and an Emax of 218%. For the same compound, the “TECC24 AUC fold over DMSO” value in assay [2] is given as “B (“B” refers to AUC @10 μM between 4-6)”.

In assay [1], `CC(C)(C)[C@H](NC(=O)c1ccc2sc(-c3cscn3)cc2c1OCc1ccc(C(F)(F)F)cc1)C(=O)O` [Compound 33-17, (2S)-3,3-dimethyl-2-(2-(thiazol-4-yl)-4-((4-(trifluoromethyl)benzyl)oxy)-benzo[b]thiophene-5-carboxamido)butanoic acid] had an EC50 of 3200 nM and an Emax of 57.7%. Besides, in assay [2], the “TECC24 AUC fold over DMSO” value is recorded as “C (“C” refers to AUC @10 μM < 4)”.

`CCC(C)(C)[C@H](NC(=O)c1ccc2cc(C)sc2c1OCc1ccc(OC(F)(F)F)cc1)C(=O)O` [Compound 33-18, (2S)-3,3-dimethyl-2-(2-methyl-7-((4-(trifluoromethoxy)benzyl)oxy)-benzo[b]thiophene-6-carboxamido)pentanoic acid]: in assay [1], the response was half-maximal at 1150 nM (EC50) and the Emax came to 217%. The “TECC24 AUC fold over DMSO” value in assay [2] is “A (“A” refers to AUC @10 μM > 6)”.

Turning to `CCC(C)(C)[C@H](NC(=O)c1ccc2cc(C)sc2c1OCc1ccc(C(F)(F)F)cc1)C(=O)O` [Compound 33-19, (2S)-3,3-dimethyl-2-(2-methyl-7-((4-(trifluoromethyl)benzyl)oxy)-benzo[b]thiophene-6-carboxamido)pentanoic acid], in assay [1], the EC50 is 427 nM and the Emax was 255%. Also, in assay [2], the “TECC24 AUC fold over DMSO” value was “A (“A” refers to AUC @10 μM > 6)”.

For the compound `CCC(C)(C)[C@H](NC(=O)c1ccc2sc(-c3cscn3)cc2c1OCc1ccc(C(F)(F)F)cc1)C(=O)O` [Compound 33-20, (2S)-3,3-dimethyl-2-(2-(thiazol-4-yl)-4-((4-(trifluoromethyl)benzyl)oxy)-benzo[b]thiophene-5-carboxamido)pentanoic acid], in assay [1], it took 2780 nM to reach a half-maximal effect (EC50) and the maximal response (Emax) stood at 81.2%. Moreover, in assay [2], the “TECC24 AUC fold over DMSO” value was “C (“C” refers to AUC @10 μM < 4)”.

In assay [1], `CCc1cc2c(OCc3ccc(C(F)(F)F)cc3)c(C(=O)N[C@H](C(=O)O)C(C)(C)C)ccc2s1` [Compound 33-21, (2S)-2-(2-ethyl-4-((4-(trifluoromethyl)benzyl)oxy)-benzo[b]thiophene-5-carboxamido)-3,3-dimethylbutanoic acid] had an EC50 of 337 nM and an Emax of 268%. For the same compound, the “TECC24 AUC fold over DMSO” value in assay [2] was “A (“A” refers to AUC @10 μM > 6)”.

As for `CCC(C)(C)[C@H](NC(=O)c1ccc2cc(Cl)sc2c1OCc1ccc(OC(F)(F)F)cc1)C(=O)O` [Compound 33-22, (2S)-2-(2-chloro-7-((4-(trifluoromethoxy)benzyl)oxy)-benzo[b]thiophene-6-carboxamido)-3,3-dimethylpentanoic acid], in assay [1], the EC50 was found to be 755 nM and the Emax amounted to 169%. Besides, the “TECC24 AUC fold over DMSO” value in assay [2] is reported as “A (“A” refers to AUC @10 μM > 6)”.

With `CCc1cc2c(OCc3ccc(OC(F)(F)F)cc3)c(C(=O)N[C@H](C(=O)O)C(C)(C)C)ccc2s1` [Compound 33-23, (2S)-2-(2-ethyl-4-((4-(trifluoromethoxy)benzyl)oxy)-3a,7a-benzo[b]thiophene-5-carboxamido)-3,3-dimethylbutanoic acid], in assay [1], it took 1130 nM to reach a half-maximal effect (EC50) and the Emax was 315%. In addition, in assay [2], the “TECC24 AUC fold over DMSO” value is “A (“A” refers to AUC @10 μM > 6)”.

The record behind these values is US12630521B2, “Arylamides and methods of use thereof” (Genzyme Corporation, priority 2019, dated 2026).
